Experimental data published in patent publication US11447504B2, “Macrocyclic chlorine substituted indole derivatives” (Bayer Aktiengesellschaft, priority 2017, dated 2022).
Structures can show the parent of a compound that is named as a salt. Where two headings read alike, the source gives them in different places.

Key:
SUDHL10 [1] = experiment: Induction of caspase-3/7 activity (Assay 4), SUDHL10; assay type: cell-based; conditions: SUDHL10 cells
Method: (§1) Induction of Caspase-3/7 Activity Upon Treatment of Cells with Selected Compounds
In contrast, MCL-1 inhibitors are expected to antagonize this effect leading to an increase in apoptosis, which can be determined by measuring the activity of caspase-3/7.
(§2) The activity of caspase-3/7 was determined in DLBCL (Diffuse large B-cell lymphoma) cell lines (SUDHL5 and SUDHL10) upon treatment with different compounds, using the Caspase-Glo®3/7 reagent from Promega (G8092).
(§3) Rim wells were excluded. The cells were incubated for 3 hours in a humidified incubator at 37° C.
(§4) For the evaluation of the results, the background measured with “medium-only” was subtracted from all other values.

SUDHL5 [2] = experiment: Antiproliferation assay 7, SUDHL5; assay type: cell-based; conditions: SUDHL5 cells, CellTiter-Glo, read-out: Antiproli SUDHL5 IC50 (median)
Method: (§5) Assessment of the Anti-Proliferative Effect of Compounds in Different Cell Lines
(§6) The impact of compounds on the proliferation of different cell lines was assessed using the CellTiter-Glo® Luminescent Cell Viability reagent from Promega (G7573).
(§7) In parallel, cells were plated in a reference (day 0) plate for time zero determination.
(§8) Rim wells were excluded. The cells were incubated for 72 hours in a humidified incubator at 37° C. The day 0 plate was measured by adding 30 μL/well of CTG solution (CellTiter-Glo® Luminescent Cell Viability reagent, Promega G7573) to time zero wells in the reference plate followed by a 10 minutes incubation and luminescence reading at 0.1 ms. using the PHERAstar FS microplate reader (BMG Labtech).
(§9) After 72 hours incubation, the treated plates were measured in the same way as the day 0 plate mentioned above.

MV-4-11 = experiment: Antiproliferation assay 7, MV-4-11; assay type: cell-based; conditions: MV-4-11 cells, CellTiter-Glo, read-out: Antiproli MV-4-11 IC50 median
Method: as §5, §6, §7, §8, §9

AMO-1 = experiment: Antiproliferation assay 7, AMO-1; assay type: cell-based; conditions: AMO-1 cells, CellTiter-Glo, read-out: Antiproli AMO-1 IC50 median
Method: as §5, §6, §7, §8, §9

SUDHL5 [3] = experiment: Induction of cytotoxicity (Assay 6), SUDHL5
SUDHL10 [4] = experiment: Induction of cytotoxicity (Assay 6), SUDHL10
SUDHL5 [5] = experiment: Induction of caspase-3/7 activity (Assay 4), SUDHL5; assay type: cell-based; conditions: SUDHL5 cells
Method: as §1
The BH3-domain of MCL-1 sequesters pro-apoptotic proteins, thereby inhibiting apoptosis. In contrast, MCL-1 inhibitors are expected to antagonize this effect leading to an increase in apoptosis, which can be determined by measuring the activity of caspase-3/7.
as §2, §3, §4

HMC-1-8 = experiment: Antiproliferation assay 7, HMC-1-8; assay type: cell-based; conditions: 72 h, HMC-1-8 cells, CellTiter-Glo, read-out: Antiproli HMC-1-8 IC50 median
Method: as §5, §6, §7, §8, §9

[6] = 3 hours, Caspase-Glo 3/7, read-out: Caspase SUDHL10 EC50 (median)
[7] = read-out: Cytotox SUDHL5 IC50 (median), SUDHL5 cells, 5 hours, CellTiter-Glo
[8] = read-out: Cytotox SUDHL10 IC50 (median), SUDHL10 cells, 5 hours, CellTiter-Glo
[9] = Homo sapiens, SU-DHL-5, 3 h, Caspase-Glo 3/7, read-out: Caspase SUDHL5 EC50 (median)
[10] = Homo sapiens, SU-DHL10, 3 h, Caspase-Glo 3/7, read-out: Caspase SUDHL10 EC50 (median)
[11] = Homo sapiens, SU-DHL-5, 5 h, read-out: Cytotox SUDHL5 IC50 (median), SUDHL5 cells, 5 hours, CellTiter-Glo
[12] = Homo sapiens, SU-DHL10, 5 h, read-out: Cytotox SUDHL10 IC50 (median), SUDHL10 cells, 5 hours, CellTiter-Glo
[13] = 3 hours, Caspase-Glo 3/7, read-out: Caspase SUDHL5 EC50 (median)

Structure (SMILES)	EC50 (SUDHL10 [1]; [6])	IC50 (SUDHL5 [2]; 72 hours)	IC50 (MV-4-11; 72 hours)	EC50 (SUDHL5 [5]; [9])	EC50 (SUDHL10 [1]; [10])	IC50 (SUDHL5 [2]; Homo sapiens, SU-DHL-5, 72 h)	IC50 (MV-4-11; Homo sapiens, MV4-11, 72 h)	EC50 (SUDHL5 [5]; [13])	IC50 (AMO-1; 72 hours)	IC50 (SUDHL5 [3]; [7])	IC50 (SUDHL10 [4]; [8])	IC50 (AMO-1; Homo sapiens, AMO1, 72 h)	IC50 (SUDHL5 [3]; [11])	IC50 (SUDHL10 [4]; [12])	IC50 (HMC-1-8)
CCc1c2c(nn1C)COCCCCn1c(C(=O)O)c(CCCOc3cccc4cc(F)ccc34)c3ccc(Cl)c-2c31 (single isomer, unassigned; enantiomer 2) [Example 38, (−)-4-chloro-3-ethyl-7-{3-[(6-fluoronaphthalen-1-yl)oxy]propyl}-2-methyl-2,10,11,12,13,15-hexahydropyrazolo[4′,3′:9,10][1,6]oxazacycloundecino[8,7,6-hi]indole-8-carboxylic acid-N-ethylethanamine Salt (Enantiomer 2)]	13000 nM	1800 nM	13400 nM	–	–	–	–	–	11500 nM	4300 nM	14000 nM	–	–	–	–
CCc1nn(C)c2c1-c1c(Cl)ccc3c(CCCOc4cccc5cc(F)ccc45)c(C(=O)O)n(c13)CCCCN(C)C2 (racemic) [Example 39, (rac)-4-chloro-3-ethyl-7-{3-[(6-fluoronaphthalen-1-yl)oxy]propyl}-1,14-dimethyl-10,11,12,13,14,15-hexahydro-1H-pyrazolo[3′,4′:8,9][1,6]diazacycloundecino[10,11,1-hi]indole-8-carboxylic Acid]	–	–	–	200 nM	390 nM	200 nM	442 nM	–	–	–	–	359 nM	230 nM	410 nM	–
CCc1nn(CCN2CCOCC2)c2c1-c1c(Cl)ccc3c(CCCOc4cccc5ccccc45)c(C(=O)O)n(c13)C/C=C\CN(C)C2 (racemic) [Example 42, (rac)-(11Z)-4-chloro-3-ethyl-14-methyl-1-[2-(morpholin-4-yl)ethyl]-7-{3-[(naphthalen-1-yl)oxy]-propyl}-10,13,14,15-tetrahydro-1H-pyrazolo[3′,4′:8,9][1,6]diazacycloundecino[10,11,1-hi]indole-8-carboxylic Acid]	–	–	–	540 nM	1300 nM	220 nM	975 nM	–	–	–	–	1380 nM	600 nM	1600 nM	–
CCc1nn(CCN2CCOCC2)c2c1-c1c(Cl)ccc3c(CCCOc4cccc5ccccc45)c(C(=O)O)n(c13)CCCCN(C)C2 (racemic) [Example 45, (rac)-4-chloro-3-ethyl-14-methyl-1-[2-(morpholin-4-yl)ethyl]-7-{3-[(naphthalen-1-yl)oxy]propyl}-10,11,12,13,14,15-hexahydro-1H-pyrazolo[3′,4′:8,9][1,6]diazacycloundecino[10,11,1-hi]indole-8-carboxylic Acid]	–	–	–	290 nM	460 nM	530 nM	628 nM	–	–	–	–	593 nM	400 nM	750 nM	–
CCc1c2c(nn1C)COCCCCn1c(C(=O)O)c(CCCOc3cccc4cc(F)ccc34)c3ccc(Cl)c-2c31 (racemic) [Example 36, (rac)-4-chloro-3-ethyl-7-{3-[(6-fluoronaphthalen-1-yl)oxy]propyl}-2-methyl-2,10,11,12,13,15-hexahydropyrazolo[4′,3′:9,10][1,6]oxazacycloundecino[8,7,6-hi]indole-8-carboxylic Acid]	–	–	–	300 nM	450 nM	340 nM	1010 nM	–	–	–	–	286 nM	300 nM	640 nM	–
Cc1c2c(nn1C)COCCCCn1c(C(=O)O)c(CCCOc3cccc4ccccc34)c3ccc(Cl)c-2c31 (single isomer, unassigned; enantiomer 2) [Example 27, 4-chloro-2,3-dimethyl-7-[3-(naphthalen-1-yloxy)propyl]-2,10,11,12,13,15-hexahydropyrazolo-[4′,3′:9,10][1,6]oxazacycloundecino[8,7,6-hi]indole-8-carboxylic acid-N-ethylethanamine Salt (Enantiomer 2)]	23000 nM	7800 nM	16100 nM	–	–	–	–	16000 nM	–	10000 nM	20000 nM	–	–	–	–

Now from value to molecule, other results behind:

EC50 (SUDHL10 [1]; [6])	IC50 (SUDHL5 [2]; 72 hours)	IC50 (MV-4-11; 72 hours)	EC50 (SUDHL5 [5]; [9])	EC50 (SUDHL10 [1]; [10])	IC50 (SUDHL5 [2]; Homo sapiens, SU-DHL-5, 72 h)	IC50 (MV-4-11; Homo sapiens, MV4-11, 72 h)	EC50 (SUDHL5 [5]; [13])	Structure (SMILES)	IC50 (AMO-1; 72 hours)	IC50 (SUDHL5 [3]; [7])	IC50 (SUDHL10 [4]; [8])	IC50 (AMO-1; Homo sapiens, AMO1, 72 h)	IC50 (SUDHL5 [3]; [11])	IC50 (SUDHL10 [4]; [12])	IC50 (HMC-1-8)
13000 nM	7200 nM	11700 nM	–	–	–	–	9400 nM	CCc1nn(CCN2CCOCC2)c2c1-c1c(Cl)ccc3c(CCCOc4cccc5ccccc45)c(C(=O)O)n(c13)C/C=C\CN(C)C2 (single isomer, unassigned; enantiomer 2) [Example 44, (11Z)-4-chloro-3-ethyl-14-methyl-1-[2-(morpholin-4-yl)ethyl]-7-{3-[(naphthalen-1-yl)oxy]propyl}-10,13,14,15-tetrahydro-1H-pyrazolo[3′,4′:8,9][1,6]diazacycloundecino[10,11,1-hi]indole-8-carboxylic Acid-Ammonia Salt (Enantiomer 2)]	15500 nM	8100 nM	15000 nM	–	–	–	–
9400 nM	2700 nM	4890 nM	–	–	–	–	2800 nM	CCc1nn(C)c2c1-c1c(Cl)ccc3c(CCCOc4cccc5cc(F)ccc45)c(C(=O)O)n(c13)CCCCN(C)C2 (single isomer, unassigned; enantiomer 2) [Example 41, 4-chloro-3-ethyl-7-{3-[(6-fluoronaphthalen-1-yl)oxy]propyl}-1,14-dimethyl-10,11,12,13,14,15-hexahydro-1H-pyrazolo[3′,4′:8,9][1,6]diazacycloundecino[10,11,1-hi]indole-8-carboxylic Acid (Enantiomer 2)]	14900 nM	4000 nM	12000 nM	–	–	–	–
–	–	–	330 nM	–	–	–	–	CCc1c2c(nn1C)CN(CC(F)(F)F)CCCCn1c(C(=O)O)c(CCCOc3cccc4cc(F)ccc34)c3ccc(Cl)c-2c31 (racemic) [Example 61, (rac) 4-chloro-3-ethyl-7-{3-[(6-fluoronaphthalen-1-yl)oxy]propyl}-2-methyl-14-(2,2,2-trifluoroethyl)-10,11,12,13,14,15-hexahydro-2H-pyrazolo[3′,4′:8,9][1,6]diazacycloundecino[10,11,1-hi]indole-8-carboxylic Acid]	–	–	–	1870 nM	540 nM	–	7150 nM
–	–	–	800 nM	1900 nM	1600 nM	1710 nM	–	CCc1c2c(nn1C)CCCCCCn1c(C(=O)O)c(CCCOc3cccc4ccccc34)c3ccc(Cl)c-2c31 (racemic) [Example 51, (rac)-4-chloro-3-ethyl-2-methyl-7-{3-[(naphthalen-1-yl)oxy]propyl}-10,11,12,13,14,15-hexahydro-2H-pyrazolo[4′,3′:4,5]azacycloundecino[3,2,1-hi]indole-8-carboxylic Acid]	–	–	–	2150 nM	840 nM	2000 nM	–
16000 nM	4200 nM	8630 nM	–	–	–	–	11000 nM	CCc1c2c(nn1C)CN(C)CCCCn1c(C(=O)O)c(CCCOc3cccc4cc(F)ccc34)c3ccc(Cl)c-2c31 (single isomer, unassigned; enantiomer 2) [Example 7, 4-chloro-3-ethyl-7-{3-[(6-fluoronaphthalen-1-yl)oxy]propyl}-2,14-dimethyl-10,11,12,13,14,15-hexahydro-2H-pyrazolo[3′,4′:8,9][1,6]diazacycloundecino[10,11,1-hi]indole-8-carboxylic Acid (Enantiomer 2)]	11100 nM	7100 nM	8300 nM	–	–	–	–
